Measurements taken from patent US7442398B2, “Phytase produced from Citrobacter braakii” (Republic of National Fisheries Research and Development …, priority 2003, dated 2008).

Legend:
[1] = system: YH-15 phytase; test: Substrate specificity of phytase; format: biochemical, Citrobacter braakii YH-15; settings: for Relative activity (%): substrate, phytate = 100
Description: (§1) Substrate specificity of phytase to various phosphate ester compounds was investigated.

[2] = system: YH-15 phytase; test: Enzyme activity of phytase according to metal ions and inhibitors; format: biochemical, Citrobacter braakii YH-15; settings: for enzyme activity after being left with denaturant: 37° C. for 2 hours, 8 M urea or 0.0024% SDS; for inhibition of enzyme activity by metal ions: concentration of 10 mM
Description: (§2) The present inventors investigated the effect of metal ions and inhibitors on the enzyme activity of phytase of the present invention.

[3] = target: T1, Citrobacter braakii YH-15 phytase, wild type, SEQ. ID. No 7 (N-terminal SEQ. ID. No 2) (Citrobacter braakii, UniProt Q2VY22); test: Substrate kinetics of purified YH-15 phytase (phosphate release from phytate); format: biochemical; settings: substrate phytate (sodium phytate)
T1 construct: signal peptide removed
Description: (§3) The present inventors measured the activity of phytase produced by the 5 strains above (Table 1). Inorganic phosphorus quantitative method of Fiske, et al. was used for measuring the activity of phytase in culture solution and in cell precipitate. Particularly, 400 μl of substrate solution (2 mM sodium phytate in 0.1 M sodium acetate buffer, pH 5.0) was added to 100 μl of enzyme solution diluted by required dilution ratio, which was reacted at 37° C. for 30 minutes. Then, 500 μl of 5% TCA solution was added thereto, which was just left at 0° C. for 10 minutes to stop the reaction. As for a control (blank), TCA (trichloroacetic acid) solution was added to enzyme solution to inactivate the enzyme and then substrate solution was added thereto, which was left for a while. 4 ml of reagent A (1:1:1:2 ratio of 6 N H2SO4/2.5% ammonium molybdate/10% ascorbic acid/H2O) was added, followed by reaction at 37° C. for 30 minutes. Then, activities in enzyme solution and in a control were measured at 820 nm. 1 unit of the enzyme was determined to be the enzyme amount releasing 1 μmole of phosphate for 1 minute.
(§4) The enzyme activity of phytase included in each sample prepared from each purification stage of the above Example <3-2> was investigated (Table 3). Protein content was quantified by BCA protein quantification kit provided by Sigma, co. At that time, BSA (bovine serum albumin) was used as a standard protein. Specific activity of the purified phytase to phytate was 3,457 units/mg, recovery rate was 28%, and the final phytase was purified by 12,950 fold (FIG. 2).
as §1

[4] = target: T1, Citrobacter braakii YH-15 phytase, wild type, SEQ. ID. No 7 (N-terminal SEQ. ID. No 2); test: Enzyme activity of YH-15 phytase according to metal ions and inhibitors; format: biochemical; settings: for effect of inhibitor on enzyme activity: concentration not given, reagents involved in disulfate bond
Description: as §3, §2

[5] = system: O=P(O)(O)O[C@H]1[C@H](OP(=O)(O)O)[C@@H](OP(=O)(O)O)[C@H](OP(=O)(O)O)[C@@H](OP(=O)(O)O)[C@H]1OP(=O)(O)O; test: Substrate kinetics of purified YH-15 phytase (phosphate release from phytate); format: biochemical, Citrobacter braakii YH-15; settings: other: substrate phytate (sodium phytate); pH 5.0; 37.0 °C
Description: as §3, §4, §1

[6] = Enzyme activity of phytase according to temperature and pH; format: biochemical, Citrobacter braakii YH-15
Description: The present invention investigated an enzyme activity of phytase, according to temperature and pH, purified through chromatography using Mono S column.
When the enzyme was left at 55° C. for 10 minutes, 75% of the activity was still remained.
50% of the enzyme activity was still maintained at pH 2.5. […] But, as the protein was left under pH 3.0 for 4 hours, the enzyme activity was almost lost. From temperature and pH test with the protein, phytase of the present invention was believed to be very suitable for being used as a feed additive for monogastric animals.

[7] = Specific activity and kinetics of purified phytase to phytate; format: biochemical, Citrobacter braakii YH-15
Description: as §3
The enzyme activity of phytase included in each sample prepared from each purification stage of the above Example <3-2> was investigated (Table 3). Protein content was quantified by BCA protein quantification kit provided by Sigma, co. […]

[8] = system: proteases; test: Effect of proteases on the enzyme activity of phytase; format: biochemical
Description: The present inventors investigated the effect of proteases on the enzyme activity of phytase. Particularly, phytase was left at 37° C. for 2 hours with pepsin and trypsin, resulting in no changes in the enzyme activity. But, as papain, elastase and pancreatin were added, 70˜85% of the enzyme activity remained.

Nc1ncnc2c1ncn2[C@@H]1O[C@H](COP(=O)(O)OP(=O)(O)OP(=O)(O)O)[C@@H](O)[C@H]1O [ATP]
Relative activity (%) [1]: 1.86%

O=P(O)(O)OCC(O)CO (centres unmarked) [Glycerophosphate]
Relative activity (%) [1]: 0.57%

CCCCCCCCCCCCOS(=O)(=O)[O-].[Na+] [SDS]
enzyme activity after being left with denaturant [2]: almost lost

O=P(O)(O)O[C@H]1[C@H](OP(=O)(O)O)[C@@H](OP(=O)(O)O)[C@H](OP(=O)(O)O)[C@@H](OP(=O)(O)O)[C@H]1OP(=O)(O)O [phytate, myo-inositol 1,2,3,4,5,6 hexakis dihydrogen phosphate]
Vmax [3]: 6,027 U/mg

O=P(O)(O)O[C@H]1[C@H](OP(=O)(O)O)[C@@H](OP(=O)(O)O)[C@H](OP(=O)(O)O)[C@@H](OP(=O)(O)O)[C@H]1OP(=O)(O)O [Phytate, myo-inositol 1,2,3,4,5,6 hexakis dihydrogen phosphate]
ability of phytase to decompose the substrate [1]: strong ability to decompose | Relative activity (%) [1]: 100%

OC(CS)C(O)CS (centres unmarked) [dithothreitol]
effect of inhibitor on enzyme activity [4]: hardly affected

O=C[C@@H](O)[C@@H](O)[C@H](O)[C@H](O)COP(=O)(O)O [Mannose-6-phosphate]
Relative activity (%) [1]: 0.01%

[Cl][Fe]([Cl])[Cl] [FeCl3]
inhibition of enzyme activity by metal ions [2]: strongly inhibited | Relative activity (%) ([2]; metal ion or inhibitor 6 mM): 19%

O=S(=O)([O-])[O-].[Ni+2] [NiSO4]
Relative activity (%) ([2]; metal ion or inhibitor 6 mM): 88%

[Cl-].[Na+] [NaCl]
inhibition of enzyme activity ([2]; concentration of 1 M): 50% | Relative activity (%) ([2]; metal ion or inhibitor 6 mM): 102% | Relative activity (%) ([2]; metal ion or inhibitor 1000 mM): 54%

Nc1ncnc2c1ncn2[C@@H]1O[C@H](COP(=O)(O)OP(=O)(O)O)[C@@H](O)[C@H]1O [ADP]
Relative activity (%) [1]: 1.04%

O=S(=O)([O-])[O-].[Cu+2] [CuSO4]
inhibition of enzyme activity by metal ions [2]: strongly inhibited | Relative activity (%) ([2]; metal ion or inhibitor 6 mM): 38%

O=P(O)(O)O[C@H]1O[C@H](CO)[C@@H](O)[C@H](O)[C@H]1O [Glucose-1-phosphate]
Relative activity (%) [1]: 0.42%

[Cl-].[Cl-].[Mg+2] [MgCl2]
Relative activity (%) ([2]; metal ion or inhibitor 6 mM): 71%

[Cl][Cd][Cl] [CdCl2]
Relative activity (%) ([2]; metal ion or inhibitor 6 mM): 101%

OCCS [2-mercaptoethanol]
effect of inhibitor on enzyme activity [4]: hardly affected

O=S(=O)([O-])[O-].[Zn+2] [ZnSO4]
inhibition of enzyme activity by metal ions [2]: strongly inhibited | Relative activity (%) ([2]; metal ion or inhibitor 8 mM): 33%

NC(N)=O [urea]
enzyme activity after incubation with inhibitor ([4]; 8 M, 37° C., 2 hours): almost lost | enzyme activity after being left with denaturant [2]: almost lost

[Ca+2].[Cl-].[Cl-] [CaCl2]
Relative activity (%) ([2]; metal ion or inhibitor 6 mM): 87%

[Cl-].[K+] [KCl]
Relative activity (%) ([2]; metal ion or inhibitor 6 mM): 95%

[Cl][Mn][Cl] [MnCl2]
Relative activity (%) ([2]; metal ion or inhibitor 6 mM): 92%

O=[N+]([O-])c1ccc(OP(=O)(O)O)cc1 [p-nitrophenyl phosphate]
Relative activity (%) [1]: 11.27%

Citrobacter braakii YH-15 phytase, wild type, SEQ. ID. No 7 (N-terminal SEQ. ID. No 2) (Citrobacter braakii)
Km [5]: 460 µM | Vmax [5]: 6,027 U/mg

O=C[C@H](O)[C@@H](O)[C@H](O)[C@H](O)COP(=O)(O)O [Glucose-6-phosphate]
Relative activity (%) [1]: 0.33%

O=C(CO)[C@@H](O)[C@H](O)[C@H](O)COP(=O)(O)O [Fructose-6-phosphate]
Relative activity (%) [1]: 0.75%

O=P([O-])([O-])OP(=O)([O-])[O-].[Na+].[Na+].[Na+].[Na+] [Tetrasodium pyrophosphate]
Relative activity (%) [1]: 5.95%

O=C(O)CN(CCN(CC(=O)O)CC(=O)O)CC(=O)O [EDTA]
activity at 6000 µM ([4]; read-out: Relative activity (%)): 98%

B1: YH-15 phytase: novel phytase enzyme of about 47 kDa produced by Citrobacter braakii YH-15, SEQ. ID. No 7 (protein)
chain: MSTFIIRLLIFSLLCGSFSIHAEEQNGMKLERVVIVSRHGVRAPTKFTPIMKDVTPDQWPQWDVPLGWLTPRGGELVSELGQYQRLWFTSKGLLNNQTCPSPGQVAVIADTDQRTRKTGEAFLAGLAPKCQIQVHYQKDEEKNDPLFNPVKMGKCSFNTLKVKNAILERAGGNIELYTQRYQSSFRTLENVLNFSQSETCKTTEKSTKCTLPEALPSEFKVTPDNVSLPGAWSLSSTLTEIFLLQEAQGMPQVAWGRITGEKEWRDLLSLHNAQFDLLQRTPEVARSRATPLLDMIDTALLTNGTTENRYGIKLPVSLLFIAGHDTNLANLSGALDLKWSLPGQPDNTPPGGELVFEKWKRTSDNTDWVQVSFVYQTLRDMRDIQPLSLEKPAGKVDLKLIACEEKNSQGMCSLKSFSRLIKEIRVPECAVTE
modifications: Citrobacter braakii YH-15; PEPTIDE (1)..(433) phytase
pH of highest activity [6]: 4.0 | temperature of highest activity [6]: 50 °C | activity on storage at pH 3.0-4.5 ([6]; 37° C., pH 3.0-4.5, 7 days): very stably maintained | activity remained at pH 7.0 ([6]; 37° C., pH 7.0, 7 days): 50% | activity after holding at 50° C. ([6]; 50° C. for 1 hour): stably maintained | activity remained after heat ([6]; left at 55° C. for 10 minutes): 75% | enzyme activity maintained at pH 2.5 ([6]; pH 2.5): 50% | activity after being left under pH 3.0 ([6]; under pH 3.0 for 4 hours): almost lost | Specific activity of the purified phytase to phytate ([7]; final purified phytase): 3,457 units/mg | Specific activity ([7]; purification stage Mono SHR 5/5 (final)): 3,457 U/mg | enzyme activity after pepsin ([8]; 37° C. for 2 hours with pepsin): no changes | enzyme activity after trypsin ([8]; 37° C. for 2 hours with trypsin): no changes | enzyme activity remained after elastase ([8]; elastase added): 70˜85% | enzyme activity remained after pancreatin ([8]; pancreatin added): 70˜85% | enzyme activity remained after papain ([8]; papain added): 70˜85%
